Patent publication US20080112927A1, “Cells and methods utilizing same for modifying the electrophysiological function of excitable tissues” (GeneGrafts Ltd., priority 2006, published 2008)

Columns and labels:
[1] = tested on: cultured neuronal network (cortical neurons); experiment: Spiking activity of cultured cortical neuronal network on multi electrode array (MEA); type: cell-based, rat
Procedure: Cortical neurons were obtained from newborn rats within 24 hours from birth, following standard harvesting procedures (Culturing nerve cells, 2nd edition, Gary Ranker and Kimberly Goslin, 1998). The cortex tissue was digested enzymatically and mechanically dissociated and the neurons were plated directly onto substrate-integrated multi-electrode array (MEA) dishes prepared as described below. The cultures were bathed in MEM which was supplemented with heat-inactivated horse serum (5%), Glutamine (0.5 mM), Glucose (20 mM), and Gentamycin (10 μg/ml), and maintained in a tissue culture incubator at 37° C., 5% CO2 and 95% during the recording phases. Half of the medium was exchanged twice a week and the experiments were performed during the third week following plating, thus allowing complete maturation of the neurons (FIGS. 1a-b).
Arrays of 60 Ti/Au/TiN electrodes, 30 μm in diameter, spaced 200 μm from each other (MultiChannelSystems (MCS), Reutlingen, Germany) were utilized in the present study. The insulation layer (silicon nitride), was pretreated with poly-L-lysine forming a good surface for network development. A commercial 60-channel amplifier (B-MEA-1060, MCS, Reutlingen, Germany) with frequency limit range of 10-3000 Hz and a gain of ×1024 was utilized for signal amplification. The amplifier was connected to MCPPlus filter amplifiers (Alpha Omega, Nazareth, Israel) for further amplification (×10 to ×20). Stimulation through the MEA was performed using a dedicated 8-channel stimulus generator (MCS, Reutlingen, Germany).
In addition, the micro-incubation environment was arranged to support long-term recordings from MEA dishes. This was achieved by streaming a filtered, heated and humidified air/CO2 (95/5%) gas mixture, and by electrically heating the MEA platform to 37° C. Data is digitized using two 5200a/526 A/D boards (Microstar Laboratories, Wash., USA).
Following electrical functionality determination, the neuronal network cultures were incubated with various electrical conduction blockers.

[2] = target: mutant voltage gated potassium channel Kv1.3 (GenBank Accession number H18261) expressed in NIH 3T3 fibroblasts; experiment: cell-based or functional assay
[3] = tested on: cardiomyocytes co-cultured with fibroblasts (NIH 3T3) transfected with voltage gated potassium channel Kv1.3; experiment: CTX on MEA-recorded activity of cardiomyocytes co-cultured with Kv1.3 transfected fibroblasts (Example 5); type: cell-based, rat; conditions: for increase of spontaneous activity rate: co-cultures with transfected fibroblasts
Procedure: (§1) Monolayer cultures of neonatal rat ventricular cardiomyocytes (NRVM) were prepared as previously described (Rubin et al, 1995), with some modifications. The cultures were maintained in a humidified incubator under a controlled environment of 5% CO2+95% air at 37° C.; fresh medium was replaced on alternating days.
(§2) Fibroblasts from the NIH 3T3 cell line were transfected with an expression cassette which included a mutant voltage gated potassium channel (Kv1.3) coding sequence (GeneBank Accession number H18261) placed under the transcription control of a constitutive promoter using standard procedures. Fibroblast cultures not transfected with the channel coding sequence were produced from the NIH 3T3 cell-line.
(§3) Once well synchronous spontaneous activity was established in the cardiomyocyte cultures, fibroblasts transfected with the Kv1.3 channel coding sequence or non-transfected fibroblasts were added to the cultures. Two different methods where used to seed the fibroblasts. In the first method, the fibroblast were suspended in trypsin for 5 minutes following which they were seeded in a diffuse pattern in the cardiomyocytic cultures (FIG. 4a). In the second method, the fibroblasts where pipetted up and down through a 5 ml pipette for 2 minutes and seeded in the cardiomyocytic cultures thus were forming clusters of fibroblasts (FIG. 4b).
Extracellular recordings from cultured cardiomyocytes were performed on a PC-based Microelectrode Data Acquisition System (Multi Channel Systems, Reutlingen, Germany), consisting of Multi-Electrode Array (MEA), pre- and filter-amplifiers, data acquisition board, and software. The MEA consists of a 50×50 mm glass substrate, in the center of which is an embedded 0.7×0.7 or 1.4×1.4 mm matrix of 60 Titanium-nitride, gold contacts 10 or 30 μm diameter electrodes insulated with silicone nitride, with inter-electrode distance of 100 or 200 μm (there are no electrodes in the corners of the matrix). Data were recorded at 10-25 KHz with 12-bit precision. During the recording sessions, the MEA (removed from the regular incubator) was constantly perfused with a gas mixture consisting of 5% CO2+95% air. Temperature was kept at 37±0.10° C.
Recorded data was filtered using cutoff frequency of 2 KHz (Fast et al, 1993). The filtered signal was then differentiated digitally to determine the Local Activation Time (LAT) at each electrode, corresponding to dF/dtmin (where F is the filtered signal) (Dolber and Spach, 1986). Color-coded activation maps were constructed by interpolating the LAT values for the sites between the electrodes, and by extrapolating the LAT values for the 4 corners of the MEA matrix. Activation maps were plotted by means of Matlab standard 2-d plotting function (pcolor) (Matlab 5.3 Mathworks Incorporated©). Conduction velocity was calculated by standard methods (Bayly et al, 1988).
(§4) Conduction block quantification is central to evaluating conduction block development in the cell cultures, and to evaluating reversibility of the conduction block following CTX application. A conduction block was determined using the following algorithm: […]
(§5) Electrical activity of the cultures was recorded on day one immediately prior to seeding of the fibroblasts and then daily until the cultures died or no spontaneous activity was detected. […]

[4] = tested on: cardiomyocyte cultures or cardiomyocytes co-cultured with untransfected fibroblasts; experiment: CTX on MEA-recorded activity of control cultures (Example 5); type: cell-based, rat; conditions: for increase of spontaneous activity rate: control cultures
Procedure: as §1, §2
as §3, with “In the second method, the fibroblasts where pipetted up and down through a 5 ml pipette for 2 minutes and seeded in the cardiomyocytic cultures thus were forming clusters of fibroblasts (FIG. 4b).” left out
Extracellular recordings from cultured cardiomyocytes were performed on a PC-based Microelectrode Data Acquisition System (Multi Channel Systems, Reutlingen, Germany), consisting of Multi-Electrode Array (MEA), pre- and filter-amplifiers, data acquisition board, and software. […] Data were recorded at 10-25 KHz with 12-bit precision. […]
Recorded data was filtered using cutoff frequency of 2 KHz (Fast et al, 1993). […] Conduction velocity was calculated by standard methods (Bayly et al, 1988).
as §4, §5

[5] = tested on: cardiomyocyte cultures seeded with Kv1.3 expressing fibroblasts; experiment: CTx on spontaneous beating rate of study co-cultures (Kv1.3 expressing fibroblasts) (Example 8); type: cell-based, rat; conditions: CTx 100 nM, study group (FIG. 18b)
Procedure: (§6) Expression system and electrophysiological recordings—NIH 3T3 fibroblast cells (ATCC: CRL 1658) were stably transfected to express the voltage gated potassium channel Kv1.3 as previously described [Feld Y. et al. Circulation. (2002); 105:522-529]. Briefly, stable transfection of pRC/CMV/Kv1.3 in fibroblasts was achieved using electroporation with a single pulse of 200 V, 960° F. followed by antibiotic selection of NeoR clones with 400 μg/mL of G-418 (GIBCO, Langley, Okla., USA). Colonies were picked and tested for channel expression using whole-cell patch clamp recordings. The recordings were conducted at room temperature using Axopatch 200 (Axon Instruments). Kv1.3 expressing fibroblast were generated as previously described [Feld Y. et al. Circulation. (2002); 105:522-9]. […]
(§7) Once a well synchronous spontaneous activity was established in the cardiomyocyte cultures, fibroblasts (naïve, or Kv1.3 expressing fibroblasts) were seeded in a diffuse manner into the cardiomyocytic cultures. Two groups were studied: The cultures were studied daily, and the electrophysiological properties, essentially the spontaneous beating rate of the culture, was assessed at baseline and following application of the specific Kv1.3 blocker, Charybdotoxin (CTx), at increasing dosages (1, 10, 100 nM). […]

[6] = tested on: cardiomyocyte cultures seeded with naive fibroblasts; experiment: CTx on spontaneous beating rate of control co-cultures (naive fibroblasts) (Example 8); type: cell-based, rat; conditions: CTx application, control group
Procedure: as §6, §7

[7] = tested on: Kv 1.3 channel of grafted fibroblasts in left ventricular myocardium; experiment: ERP after Margatoxin in rats grafted with Kv1.3 fibroblasts; type: in vivo, rat; conditions: 9 μg/kg intraperitoneal bolus; for local ventricular ERP at the site of cell transplantation after MTx, group mean: 154±13 ms before blocker (FIG. 19b)
Procedure: (§8) Rat model—Male Sprague-Dawley rats weighing 200-250 gr were anesthetized using A Xylasine (0.5 mg/kg) and Ketamine (0.5 mg/kg) preparation [see Example 7]. The animals were then intubated and ventilated using a Harvard small-animal mechanical respirator. The chest wall was opened using a left thoracotomy and the heart was exposed. After removal of the pericardium, a total of 6×10^6 cells (either fibroblasts without transfections in the control group or fibroblast overexpressing the KV1.3 channel in the study group) were transplanted into the anterior aspect of the left ventricular wall using a 28 g needle. In order to prevent graft rejection, all animals were treated with a daily dose of cyclosporin (10 mg/kg) and methyprednisolone (2 mg/kg). The animals underwent a detailed electrophysiological study (see below) immediately before cell grafting and 7 days post-transplantation.
(§9) In vivo electrophysiological studies—The electrophysiological study in rats included a standard ventricular pacing protocol to determine the local myocardial effective refractory period (ERP). The ERP was evaluated by applying a train of 20 stimuli at a fixed cycle-length of 200 ms (S1), followed by a single premature stimulus (S2). The S1-S2 coupling interval was gradually shortened. The ERP was determined as the shortest S1-S2 coupling interval still capable of eliciting a ventricular response. Stimuli were generated using a computer controlled STG 1004 stimulus generator with the matching MC-Stim software (both from Multi Channel Systems, Reutlingen, Germany).
The ERP was measured at the site of cell transplantation and at remote sites, both prior to cell transplantation and seven days following cell grafting. In order to dissect the role of the overexpressed channel in altering the local myocardial electrophysiological properties, the ERP was measured also at each site following application of 9 μg/kg of Margatoxin (Alomone Labs, Jerusalem, Israel), a specific Kv 1.3 channel blocker as an intraperitoneal bolus.

[8] = tested on: left ventricular myocardium grafted with naive fibroblasts; experiment: ERP after Margatoxin in rats grafted with naive fibroblasts (control group); type: in vivo, rat; conditions: animals grafted with naive fibroblasts, 88±4 ms before blocker
Procedure: as §8, with “The animals underwent a detailed electrophysiological study (see below) immediately before cell grafting and 7 days post-transplantation.” left out
as §9, with “The S1-S2 coupling interval was gradually shortened.” left out, “Stimuli were generated using a computer controlled STG 1004 stimulus generator with the matching MC-Stim software (both from Multi Channel Systems, Reutlingen, Germany).” left out
The ERP was measured at the site of cell transplantation and at remote sites, both prior to cell transplantation and seven days following cell grafting. […]

[9] = tested on: Kv1.3 channel of grafted fibroblasts in right ventricle; experiment: ERP after local Margatoxin in pigs grafted with Kv1.3 fibroblasts; type: in vivo, pig
Procedure: Swine model—Three domestic pigs (20-30) kg were studied. Anesthesia was induced with 5-10 ml of intravenous sodium pentothal 2.5% solution and maintained with inhaled isoflurane (2%) in oxygen. Following a right thoracotomy, each heart was exposed and a total of 6×10^6 cells were transplanted at a total of 7 different locations in the anterior free wall of the right ventricle. Cells were delivered using a 25 g needle using an injection volume of 250 μl. The sites of cell transplantation were marked with a suture. To prevent graft rejection, the animals were treated with an immunosuppressive regimen (cyclosporine, 10 mg/kg/d and methylprednisolone, 3 mg/kg/d). 7 days following cell transplantation, a second thoracotomy and a detailed epicardial electrophysiological study were performed.
The ERP in the pigs was measured in a similar manner to that in the rats but using slower basic stimulation intervals (CLs of 350, 400 and 500 ms). The ERP was measured at the site of cell transplantation as well as in remote sites and also following local intramyocardial injection of Margatoxin at the examined sites.

With `CN1CCc2cc3c(cc2[C@H]1[C@@H]1OC(=O)c2c1ccc1c2OCO1)OCO3` [bicuculin] the spiking activity ([1]; 5 μM added to the cultured neuronal network) was “completely abolished”.

In the case of `N[C@H](CCCP(=O)(O)O)C(=O)O` [APV, D-2-amino-5-phosphonovalerate], the spiking activity ([1]; 20 μM added to the cultured neuronal network) is reported as “completely abolished”.

With `O=[N+]([O-])c1cc2nc(O)c(O)nc2cc1[N+](=O)[O-]` [DNQX] the spiking activity ([1]; 10 μM added to the cultured neuronal network) was “completely abolished”.

“Margatoxin (from UniProt P40755 1-39) (peptide)” showed a local ventricular effective refractory period (ERP) at the graft site in one rat after Margatoxin (170 ms before) [2] of 100 ms.

In the case of “Charybdotoxin (QFTNVSCTTSKECWSVCQRLHNTSRGKCMNKKCRCYS) [CTX]”, the “increase of spontaneous activity rate” value ([3]; CTX 10 nM) is reported as 20%, the “increase of spontaneous activity rate” value ([3]; CTX 100 nM) is reported as 55% and the conduction block factor ([3]; application of Charybdotoxin, co-cultures with Kv1.3 transfected fibroblasts, n=10 (FIG. 11)) is reported as “substantially decreased”. The conduction blocks ([3]; following treatment with CTX (10 nM, FIG. 7d; FIG. 11)) was “reversed”, the “uncoupling effect after fibroblast seeding” value ([3]; following treatment with CTX (100 nM, FIGS. 6f-g)) was “reversed” and the “increase of spontaneous activity rate” value ([4]; CTX 10 nM) was “did not increase”. The “increase of spontaneous activity rate” value ([4]; CTX 100 nM) was “up to 15%”, the conduction block factor ([4]; application of Charybdotoxin, co-cultures with non-transfected fibroblasts, n=9 (FIG. 11)) was “minimal response” and the “reversibility of the negative chronotropic effect induced by the transfected fibroblast” value [5] was “full reversibility”. For the same compound, the beating frequency [6] was “did not significantly alter”.

With “Margatoxin (TIINVKCTSPKQCLPPCKAQFGQSAGAKCMNGKCKCYPH)” the “local ventricular ERP at the site of cell transplantation after MTx, group mean” value [7] was 117 ± 7.70 ms, the “local ventricular ERP at the site of cell transplantation after MTx, group mean” value ([7]; listed as MTx) was 117 ± 8 ms and the “ventricular ERP at the site of cell grafting after Margatoxin, one of the animals” value ([7]; 170 ms before blocker (FIG. 19a)) was 100 ms. The “local ERP after administration of Mtx, control group” value [8] was “did not change significantly”, the “local ERP after local application of MTx” value ([9]; pig, basic CL 400 ms, 310 ms before blocker (FIG. 20a)) was 220 ms and the “ventricular ERP after local application of MTx” value ([9]; pigs, all three CLs (FIG. 20b)) was “not different from the control sites”.
